Data set [1] in a line: Plasma concentrations of flutamide active metabolite in rats after single oral doses of various esters (0-4 hours), gas-liquid chromatography. The class given is in vivo, male Sprague Dawley rats. As to conditions: rat; for Relative Rank (0-4 hour area): oral, 0-4 hour area relative to flutamide = 1.00; for Area under the 0-4 hour plasma level curve of flutamide active metabolite (0-4 Hours) / Plasma concentration of flutamide active metabolite, 2 Hours / Plasma concentration of flutamide active metabolite, 4 Hours: single oral dose, normalized to a 5 mg/kg dose of flutamide active metabolite; for Plasma concentration of flutamide active metabolite, 2 Hours / Plasma concentration of flutamide active metabolite, 4 Hours: average of 2 animals.

The nature of data set [2]: Plasma concentrations of flutamide active metabolite for up to 16 hours after administration of esters or flutamide. The class given is in vivo, rats. As to conditions: rat; for 0-16 hr (area under the plasma level curve of flutamide active metabolite) / Plasma concentration of flutamide active metabolite, 0.5 hr / Plasma concentration of flutamide active metabolite, 1 hr / Plasma concentration of flutamide active metabolite, 2 hr / Plasma concentration of flutamide active metabolite, 4 hr / Plasma concentration of flutamide active metabolite, 8 hr / Plasma concentration of flutamide active metabolite, 16 hr: normalized to a 5 mg/kg dose of flutamide active metabolite; for Plasma concentration of flutamide active metabolite, 0.5 hr / Plasma concentration of flutamide active metabolite, 1 hr / Plasma concentration of flutamide active metabolite, 2 hr / Plasma concentration of flutamide active metabolite, 4 hr / Plasma concentration of flutamide active metabolite, 8 hr / Plasma concentration of flutamide active metabolite, 16 hr: average of 3 animals; for Relative Rank (0-16 hr): 0-16 hr area relative to flutamide = 1.00. On the procedure:
Plasma concentrations of the flutamide active metabolite were determined by gas-liquid chromatography in 300-350 gram male Sprague Dawley rats following single oral 5 mg/kg doses of the compounds listed. […]

The values that follow come from patent US4921941A, “Orally active antiandrogens” (Schering Corporation, priority 1987, dated 1990).

As to `CC(C)(OC(=O)[C@@H]1CCCN1C(=O)CNC(=O)[C@@H](N)CCCCN)C(=O)Nc1ccc([N+](=O)[O-])c(C(F)(F)F)c1.Cl.Cl` [lys--gly--pro, L-lysyl-glycyl-L-proline-[1-methyl-[[4-nitro-3-(trifluoromethyl)phenyl]aminocarbonyl]ethyl]ester, dihydrochloride], in data set [1], the “Relative Rank (0-4 hour area)” value amounted to 2.66; the Area under the 0-4 hour plasma level curve of flutamide active metabolite (0-4 Hours) worked out at 6400 ng·h/mL; the “Plasma concentration of flutamide active metabolite, 2 Hours” value (“Plasma concentration … 2 Hours” for short) worked out at 2277 ng/mL; the “Plasma concentration of flutamide active metabolite, 4 Hours” value (from here on “Plasma concentration … 4 Hours”) turned out to be 1847 ng/mL. Besides, in data set [2], the 0-16 hr (area under the plasma level curve of flutamide active metabolite) is 15600 ng·h/mL; the “Plasma concentration of flutamide active metabolite, 0.5 hr” value (from here on “Plasma concentration … 0.5 hr”) stood at 1392 ng/mL; the “Plasma concentration of flutamide active metabolite, 1 hr” value (from here on “Plasma concentration … 1 hr”) amounted to 1907 ng/mL; the “Plasma concentration of flutamide active metabolite, 2 hr” value (“Plasma concentration … 2 hr” below) was determined as 1751 ng/mL. In addition, in data set [2], the “Plasma concentration of flutamide active metabolite, 4 hr” value (shortened to “Plasma concentration … 4 hr”) amounted to 1170 ng/mL; the “Plasma concentration of flutamide active metabolite, 8 hr” value (“Plasma concentration … 8 hr” for short) was found to be 1054 ng/mL; the “Plasma concentration of flutamide active metabolite, 16 hr” value (“Plasma concentration … 16 hr” below) was determined as 256 ng/mL; the “Relative Rank (0-16 hr)” value is recorded as 1.89.

`CC(C)C(=O)Nc1ccc([N+](=O)[O-])c(C(F)(F)F)c1` [H (flutamide), 2-methyl-N-[4-nitro-3-(trifluoromethyl)phenyl]propanamide, reference compound]: in data set [1], the “Relative Rank (0-4 hour area)” value is on record as 1.00; the Area under the 0-4 hour plasma level curve of flutamide active metabolite (0-4 Hours) was 2400 ng·h/mL; the “Plasma concentration … 2 Hours” value is 715 ng/mL; the “Plasma concentration … 4 Hours” value was 974 ng/mL. Besides, in data set [2], the 0-16 hr (area under the plasma level curve of flutamide active metabolite) came to 8270 ng·h/mL; the “Plasma concentration … 0.5 hr” value was 210 ng/mL; the “Plasma concentration … 1 hr” value was 322 ng/mL; the “Plasma concentration … 2 hr” value is 614 ng/mL. Also, in data set [2], the “Plasma concentration … 4 hr” value was found to be 722 ng/mL; the “Plasma concentration … 8 hr” value is 649 ng/mL; the “Plasma concentration … 16 hr” value was 236 ng/mL; the “Relative Rank (0-16 hr)” value is 1.00.

For the compound `CN(CC(=O)OC(C)(C)C(=O)Nc1ccc([N+](=O)[O-])c(C(F)(F)F)c1)C(=O)CNC(=O)[C@@H](N)CCCCN` [lys--gly--sar, L-lysyl-glycyl-N-methylglycine, [1-methyl-[[4-nitro-3-(trifluoromethyl)phenyl]aminocarbonyl]ethyl]ester], in data set [1], the “Relative Rank (0-4 hour area)” value is recorded as 1.44; the Area under the 0-4 hour plasma level curve of flutamide active metabolite (0-4 Hours) is 3450 ng·h/mL; the “Plasma concentration … 2 Hours” value was determined as 1103 ng/mL; the “Plasma concentration … 4 Hours” value was found to be 1248 ng/mL.

For `CNCC(=O)OC(C)(C)C(=O)Nc1ccc([N+](=O)[O-])c(C(F)(F)F)c1` [sar], in data set [1], the “Relative Rank (0-4 hour area)” value worked out at 1.52; the Area under the 0-4 hour plasma level curve of flutamide active metabolite (0-4 Hours) was found to be 3650 ng·h/mL; the “Plasma concentration … 2 Hours” value came to 1345 ng/mL; the “Plasma concentration … 4 Hours” value came to 958 ng/mL.

As to “L-Proline-[1-methyl-[[4-nitro-3-trifluoromethyl)phenyl]aminocarbonyl]ethyl ]ester, hydrochloride”, in data set [1], the “Relative Rank (0-4 hour area)” value came out at 1.46; the Area under the 0-4 hour plasma level curve of flutamide active metabolite (0-4 Hours) is 3510 ng·h/mL; the “Plasma concentration … 2 Hours” value is 1059 ng/mL; the “Plasma concentration … 4 Hours” value was 1393 ng/mL.

On to `C[C@H](N)C(=O)NCC(=O)N(C)CC(=O)OC(C)(C)C(=O)Nc1ccc([N+](=O)[O-])c(C(F)(F)F)c1` [ala--gly--sar, L-alanyl-glycyl-N-methylglycine, [1-methyl-[[4-nitro-3-(trifluoromethyl)phenyl]aminocarbonyl]ethyl]ester], for which, in data set [1], the “Relative Rank (0-4 hour area)” value is given as 2.09; the Area under the 0-4 hour plasma level curve of flutamide active metabolite (0-4 Hours) was determined as 5020 ng·h/mL; the “Plasma concentration … 2 Hours” value was 1952 ng/mL; the “Plasma concentration … 4 Hours” value came out at 1115 ng/mL. In data set [2], the 0-16 hr (area under the plasma level curve of flutamide active metabolite) was determined as 17200 ng·h/mL; the “Plasma concentration … 0.5 hr” value was determined as 1079 ng/mL; the “Plasma concentration … 1 hr” value was determined as 2029 ng/mL; the “Plasma concentration … 2 hr” value is 1365 ng/mL. Further, in data set [2], the “Plasma concentration … 4 hr” value turned out to be 1803 ng/mL; the “Plasma concentration … 8 hr” value came to 1005 ng/mL; the “Plasma concentration … 16 hr” value stood at 423 ng/mL; the “Relative Rank (0-16 hr)” value is listed as 2.08.
